The target of this assay is T1, GIRK1/4 (Homo sapiens, UniProt P48544+P48549).
T1 sequence (P48549 1-501): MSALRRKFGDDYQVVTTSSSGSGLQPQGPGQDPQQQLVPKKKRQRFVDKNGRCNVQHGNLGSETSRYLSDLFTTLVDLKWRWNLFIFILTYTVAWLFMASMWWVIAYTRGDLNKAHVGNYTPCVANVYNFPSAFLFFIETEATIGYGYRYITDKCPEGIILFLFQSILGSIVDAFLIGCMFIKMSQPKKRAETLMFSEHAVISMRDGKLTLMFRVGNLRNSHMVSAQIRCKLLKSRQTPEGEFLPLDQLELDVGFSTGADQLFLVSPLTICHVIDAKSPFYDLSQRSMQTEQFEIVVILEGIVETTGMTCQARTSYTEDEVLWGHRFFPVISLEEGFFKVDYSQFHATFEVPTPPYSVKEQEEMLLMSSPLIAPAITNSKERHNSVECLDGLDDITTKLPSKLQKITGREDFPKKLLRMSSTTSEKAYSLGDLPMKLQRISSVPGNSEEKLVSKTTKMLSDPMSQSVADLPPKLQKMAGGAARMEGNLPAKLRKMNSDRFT
T1 sequence (P48544 1-419): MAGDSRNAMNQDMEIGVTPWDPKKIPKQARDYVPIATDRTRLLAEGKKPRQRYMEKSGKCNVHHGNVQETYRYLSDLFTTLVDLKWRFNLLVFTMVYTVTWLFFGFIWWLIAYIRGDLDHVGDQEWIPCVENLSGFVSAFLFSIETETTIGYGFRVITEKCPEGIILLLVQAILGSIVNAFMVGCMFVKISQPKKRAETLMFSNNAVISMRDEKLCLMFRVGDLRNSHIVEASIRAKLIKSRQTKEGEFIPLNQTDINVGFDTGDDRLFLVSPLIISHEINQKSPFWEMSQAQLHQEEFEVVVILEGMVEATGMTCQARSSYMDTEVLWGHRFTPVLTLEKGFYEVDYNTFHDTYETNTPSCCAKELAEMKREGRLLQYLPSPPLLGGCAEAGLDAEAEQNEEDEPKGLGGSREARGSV
The experiment in a line: current inhibition by light-activated phosphatase 5-ptaseOCRL, HEK293 whole-cell patch-clamp, GIRK1/4. The class given is cell-based. On the set-up: expressed in transfected cells. As to conditions: HEK-293 cells. An excerpt:
The inventors next pursued whole-cell patch-clamp experiments to further validate the model predictions and excised-patch results. Expression of a light-activated phosphatase that upon exposure to blue light dephosphorylates PI(4,5)P2 to PI(4)P and inhibits GIRK currents allowed recording of macroscopic currents in the absence and presence of ML297 and the two brain-specific GAT compounds. […] Since GAT1508 and ML297 only bind GIRK1 or GIRK1-like (i.e. “FD-containing”, “FD”=mimics the contribution of GIRK1 residues F137 and D173, see Example 2) subunits resulting in corresponding changes in channel-PIP2 interactions and channel activity, the inventors next sought to compare channel subunit specific interactions with PIP2 for subunits bound to the ligand (P-FD) versus those not bound to the ligand (P-WT) (FIGS. 19, 38A).
Culture of HEK293 cells: HEK293-T cells were obtained from ATCC and maintained in DMEM medium supplemented with 10% FBS and 1% penicillin and streptomycin (Hyclone). For patch-clamp studies, cells were seeded on glass coverslips and transfected 24-hours later using a polyethylenimine solution (1 mg/ml) at a ratio of 8 μl per μg of DNA. To study GIRK-currents, cells were transfected with 0.75 μg each of plasmids encoding GIRK1, GIRK2 or GIRK4 as indicated. In the optogenetic experiments, cells were co-transfected with plasmids encoding 5-ptaseOCRL and CIBN-CAAX, as previously described. 5-ptaseOCRL and CIBN-CAAX were a kind gift from the DeCamilli lab, Yale CT. All experiments were performed at room temperature 24-36 hours post transfection. […]
Patch-clamp recording: Whole-cell currents were recorded with an Axopatch 200B amplifier (Molecular Devices) controlled via a USB-interface (National Instruments) using WinWCP software (University of Strathclyde). […] The barium-sensitive component of the current, observed when cells were perfused with the high-K^+ buffer, was analyzed and was determined by perfusing 5 mM BaCl2 in the high-K^+ buffer at the end of each experiment. […]

As to `Cc1cc(NC(=O)Nc2ccc(Br)s2)n(-c2ccccc2)n1` [GAT1508, 1-(5-bromothiophen-2-yl)-3-(3-methyl-1-phenyl-1H-pyrazol-5-yl)urea], the “protection of GIRK1/4 currents from inhibition by the light-activated phosphatase (in words)” value is “not”. In the case of `Cc1cc(NC(=O)Nc2ccc(C)s2)n(-c2ccccc2)n1` [GAT1521, 1-(3-methyl-1-phenyl-1H-pyrazol-5-yl)-3-(5-methylthiophen-2-yl)urea] it was “not”; in that of `Cc1cc(NC(=O)Nc2ccc(F)c(F)c2)n(-c2ccccc2)n1` [ML297, reference compound], “some protection”.

These data come from patent US12351574B2, “Selective ligands for modulation of GIRK channels” (Northeastern University, priority 2018, dated 2025).
